# Assay results from patent US20050002922A1, “Use of secretin and secretin analogs to treat affective disorders” (priority 2003, published 2005).
# Key:
# [1] = system: rats (fear-potentiated startle); experiment: Fear-potentiated startle paradigm in rats; format: in vivo, rat
# Description: The conditioned stimulus (CS) was a 3.7 second light (80 lux) produced by an 8 W fluorescent bulb (100 msecond rise time) located 10 cm behind each cage. Luminosity was measured using a VWR light meter (Atlanta, Ga.). The US was a 0.5 second shock, delivered to the floorbars and produced by a shock generator (SGS-004; LeHigh Valley, Beltsville, Md.). Shock intensities (measured as in Cassella et al., Physiol Behav 36:1187-91, 1986) were 0.4 mA. The presentation and sequencing of all stimuli were under the control of the Macintosh G3 computer using custom-designed software (The Experimenter; Glassbeads Inc., Newton, Conn.).
# The experiment was run in four replications.
# Fear conditioning. On each of the next 2 days, rats were returned to the test chambers and 5 minutes later given the first of 10 light-footshock pairings. The 0.4 mA 0.5 second shock was delivered during the last 0.5 second of the 3.7 second light. The average intertrial interval (ITI) was 4 minutes (range, 3-5 minutes).
# Fos protein expression = experiment: Brain gene expression measured by Fos protein expression; format: in vivo, rat
# [2] = system: rats (baseline acoustic startle); details: rat, in vivo, ip
# Description: A total of 72 male Sprague-Dawley rats (Charles River, Portage, Mich.) weighing 350-450 g were used. Animals were maintained on a 12:12 hour light-dark cycle (lights on at 0700) with food and water continuously available. All rats were housed in group cages of four rats each in a temperature-controlled (24° C.) animal colony.
# Animals were trained and tested in 8×15×15 cm Plexiglas® and wire-mesh cages. Each cage floor consisted of four 6.0 mm diameter stainless-steel bars spaced 18 mm apart. Each cage was suspended between compression springs within a steel frame and located within a custom-designed 90×70×70 cm ventilated sound-attenuating chamber. Background noise (60 dB wide-band) was provided by a General Radio Type 1390-B noise generator (Concord, Mass.) and delivered through high-frequency speakers (Radio Shack Supertweeter; Tandy, Fort Worth, Tex.) located 5 cm in front of each cage. Sound level measurements (sound pressure level) were made with a Bruel & Kjaer (Marlborough, Mass.) model 2235 sound-level meter (A scale; random input) with the microphone (Type 4176) located 7 cm from the center of the speaker (approximating the distance of the rat's ear from the speaker). […]
# [3] = system: rats (spatial learning and memory)
# Description: The M swim maze was developed to test spatial learning and memory (e.g., functional memory). The animal has no visual or spatial cues in the pool and must rely on extra-maze cues (e.g., light setup outside the pool that can be seen by the swimming animal). Through a series of trials a rat develops “place learning” or knowledge about the position of the escape platform based upon the extra-maze cues. The platform can be moved to a different arm of the M configuration each day, combining spatial memory with working memory. This paradigm involves extinction of the prior memory and resolution of a new spatial problem.
# Test Animals. A total of 40 male rats were used.
# Behavioral Procedures and Data Analysis. Rats (10/group) were treated by tail vein injection with vehicle, 0.4 μg/kg/day, 4.0 μg/kg/day, and 40 μg/kg/day secretin on post natal day 25 through postnatal day 70 (45 days). Learning and memory was evaluated in a water M-maze. The evaluation consisted of 10 trials/day for each animal on 4 successive days to assess short-term memory. The goal was to escape from the maze via a platform located on the lighted arm of an M-shaped maze. After placement of the animal in the central arm of the M-shaped maze, the goal side was varied for each animal at each trial according to a predetermined computer generated sequence. The same animals were also tested 5 days after the initial testing to assess long-term memory. On that day each animal were allowed 10 trials in the maze and time to escape was measured. Significance was calculated versus the control group value for the same day of testing using a T-test.
substance,measurement,setting,value
secretin,minimum dose possessing anxiolytic properties in fear-potentiated startle paradigm,[1]; i.p.,3 µg/kg
same,effect on expression of fear-potentiated startle,[1]; i.p. 1-100 μg/kg immediately prior to testing,dose dependently impaired expression of fear-potentiated startle
same,dose giving greatest impairment of fear-potentiated startle,[1]; i.p. immediately prior to testing,10 µg/kg
same,dose giving peak change in Fos protein expression,Fos protein expression; i.p. or i.v.,40 µg/kg
same,minimum dose to detect significant changes in brain gene expression (Fos protein),Fos protein expression; i.v. or i.p.,4 µg/kg
same,effect of higher doses on baseline startle,[2],tended to suppress baseline startle
same,ability to learn and remember a spatial associative memory task,"[3]; rat, in vivo, iv",does not impair
same,learning performance in water M-maze relative to controls,"[3]; rats, 0.4 or 4.0 μg/kg/day i.v., after 4 training days, maintained after 5 day rest",improved in learning performance
same,minimum dose that improves functional memory in M swim maze,"[3]; rats, i.v.",0.4 µg/kg
